Results reported in patent US20230055441A1 (NONO INC., priority 2020, published 2023).
Entries after “also recorded” stand apart in the source; their conditions may differ. Where two headings read alike, the source gives them in different places. Square brackets hold non-standard residues; d marks the D form. Ends that are not written are not given here. Peptide text beside a SMILES is read from it.

Assays:
[1] = Plasma concentrations 15 minutes after subcutaneous dose in rats of the 3-pial vessel occlusion study; assay type: in vivo; conditions: rat, single subcutaneous administration 25, 7.6, 2.5 mg/kg
Protocol: Unlike transient models of stroke in rats where much lower doses are required for neuroprotection, neuroprotection in 3 pial vessel occlusion models of stroke seems to require plasma concentrations of nerinetide at or above 2 ug/mL (or molar equivalent). […] Although the plasma levels continue to increase through about 3 hours then decrease, it is important to achieve rapid accumulation in the blood and brain for emergency indications like stroke. […] For pharmacokinetic sample analysis, calibration standard samples at concentrations of 0, 2.5, 5, 10, 15, 20 and 40 ug/mL of nerinetide were prepared by spiking 1 μL of the appropriate stock to 100 μL of plasma. […] Data is presented as mean±SD.

[2] = system: TNK-tissue plasminogen activator; assay: Degradation in human plasma with TNK-tissue plasminogen activator; conditions: given simultaneously with TNK
Source text: (§1) The experiment was repeated using TNK-tissue plasminogen activator in place of tPA.

rt-PA [3] = assay: Degradation in human plasma in vitro with rt-PA; conditions: given simultaneously with rt-PA (tPA)
[4] = Pharmacokinetic analysis in rats by route (subcutaneous, pulmonary instillation, intramuscular, intravenous); conditions: rat
Protocol: (§2) Rats were anaesthetized in the supine position (Isoflurane 1.5-%) and allowed to breath spontaneously in 0.5 L/min 02. The left femoral artery was cannulated for blood sampling.
(§3) Test agents were prepared at the stablish concentration in a total volume of vehicle. Pulmonary instillation was performed by intubation with a 14G catheter connected to a 1 cc syringe and the test agent will be delivered through the catheter. Subcutaneous (SQ or SC) injection was injected into the area of the left flank, no more than 2 ml of total volume per site.
(§4) Each dose was evaluated in 3 rats for each administration strategy. […] For the first experiment, evaluating two different administration routes (SQ and PI), blood samples were collected at 8 different timepoints: Pre and at 7 additional times (1, 2.5, 5, 10, 15, 30, 60 min) post dose (250 ul/sample). For the 24-hour PK curve experiment, blood samples were collected at 11 timepoints: Pre, 2.5, 5, 10, 15, 30, 60 min, 3 hr, 6 hr, 12 hr and 24 hr.
(§5) HPLC quantification: Plasma was separated from blood and stored at −80° C. until used. Each sample was precipitated by adding 1M HCl (10 ul/100 ul sample) at >80° C., centrifuged (12,000 rpm×15 min) and the precipitate collected. A 5 cm C—18 RP-HPLC column was equilibrated with 10% acetonitrile with 0.1% TFA at 40° C., the sample was injected and run in an Agilent 1260 Infinity Quaternary LC System. (30 min at 1.5 mL/min; gradient from 10% to 35% acetonitrile in 0.1% TFA; Absorbance detected at 220 nm). Standard curves for HPLC were generated from plasma samples spiked with known quantities of test agent.

[5] = NA-1 plasma levels after administering NA-1 and tPA to rats; set-up: species or system rat; conditions: rats in vivo, rt-PA 5.4 mg/kg, versus NA-1 alone
[6] = system: TNK-tissue plasminogen activator; assay: Degradation in rat plasma with TNK-tissue plasminogen activator; conditions: given simultaneously with TNK
Source text: as §1

rt-PA [7] = assay: Degradation in rat plasma in vitro with rt-PA
[8] = system: embolic MCA occlusion model; assay: Embolic MCA occlusion model (eMCAo); assay type: in vivo
NMDAR2B:PSD-95 complexes = biological target: T1, NMDAR2B:PSD-95 complexes (Rattus norvegicus, UniProt P31016); assay: Dissociation of NMDAR2B:PSD-95 complexes in three pial vessel model (3PVo), immunoprecipitation and Western blotting; assay type: in vivo, Sprague-Dawley rats; conditions: 7.6 mg/kg 1 hr after stroke onset, brains harvested 2 h after onset, rat 3PVo
T1 construct: Cortical stroke areas were collected for analysis; from tissue; host or cells: rat brain, cortical stroke area, after in vivo dosing
T1 sequence (P31016 whole entry, one chain of several): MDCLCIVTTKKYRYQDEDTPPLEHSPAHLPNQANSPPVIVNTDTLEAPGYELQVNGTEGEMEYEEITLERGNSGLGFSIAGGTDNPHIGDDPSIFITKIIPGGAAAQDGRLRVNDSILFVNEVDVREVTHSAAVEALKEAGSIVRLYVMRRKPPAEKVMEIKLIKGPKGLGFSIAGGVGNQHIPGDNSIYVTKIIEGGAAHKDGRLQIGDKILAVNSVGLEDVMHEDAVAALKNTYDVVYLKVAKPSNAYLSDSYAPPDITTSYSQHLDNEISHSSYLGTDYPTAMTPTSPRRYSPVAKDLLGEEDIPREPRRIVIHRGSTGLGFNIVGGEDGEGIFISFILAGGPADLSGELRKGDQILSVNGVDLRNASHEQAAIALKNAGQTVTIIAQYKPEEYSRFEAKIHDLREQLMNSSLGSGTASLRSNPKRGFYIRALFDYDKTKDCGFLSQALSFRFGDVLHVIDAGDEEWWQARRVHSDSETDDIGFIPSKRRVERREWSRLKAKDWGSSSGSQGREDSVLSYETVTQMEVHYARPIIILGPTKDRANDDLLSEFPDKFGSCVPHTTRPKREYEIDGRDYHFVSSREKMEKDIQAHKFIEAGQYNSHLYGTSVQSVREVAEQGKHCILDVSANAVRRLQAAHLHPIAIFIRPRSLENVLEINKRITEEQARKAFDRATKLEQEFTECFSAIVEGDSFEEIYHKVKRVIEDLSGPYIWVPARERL
Protocol: Sprague-Dawley rats were subject to three pial vessel model (3PVo). […] Brains were harvested 2 h after stroke onsets. Cortical stroke areas were collected for analysis. Immunoprecipitations were performed with anti-PSD-95 or anti-NMDAR2B. The amount of PSD-95 and NMDAR2B in samples was analyzed by Western blotting. Reduction in PSD-95-NMDAR2B complex formation was assessed by fold decrease of placebo versus treatment.

[9] = 2.6 mg/kg dose; cited from earlier work
[10] = system: 3-pial vessel occlusion model of stroke; conditions: for infarct volume: versus placebo
Protocol: Treatments were administered subcutaneously as a bolus injection, 60 minutes after the onset of stroke. […] Data is presented as mean±SD, N=10/group. The asterisk (*) represents statistical significance when compared to Placebo (ANOVA, with a Tukey's post-hoc analysis, *P<0.0332, **P<0.0021, ***P<0.0002 and ****P<0.0001).

plasmin [11] = biological target: T2, plasmin (Homo sapiens, UniProt P00747); assay type: in vitro ADME
T2 construct: NA-1 was digested with plasmin
T2 sequence (P00747 581-810 limits assumed, species assumed): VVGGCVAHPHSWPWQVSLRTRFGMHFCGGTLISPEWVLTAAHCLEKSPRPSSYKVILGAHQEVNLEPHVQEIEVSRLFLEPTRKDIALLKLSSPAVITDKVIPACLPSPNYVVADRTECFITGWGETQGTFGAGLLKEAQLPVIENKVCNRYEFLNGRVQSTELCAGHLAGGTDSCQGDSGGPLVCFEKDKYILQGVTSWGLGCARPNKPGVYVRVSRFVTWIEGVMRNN
T2 sequence (P00747 97-580 limits assumed, species assumed): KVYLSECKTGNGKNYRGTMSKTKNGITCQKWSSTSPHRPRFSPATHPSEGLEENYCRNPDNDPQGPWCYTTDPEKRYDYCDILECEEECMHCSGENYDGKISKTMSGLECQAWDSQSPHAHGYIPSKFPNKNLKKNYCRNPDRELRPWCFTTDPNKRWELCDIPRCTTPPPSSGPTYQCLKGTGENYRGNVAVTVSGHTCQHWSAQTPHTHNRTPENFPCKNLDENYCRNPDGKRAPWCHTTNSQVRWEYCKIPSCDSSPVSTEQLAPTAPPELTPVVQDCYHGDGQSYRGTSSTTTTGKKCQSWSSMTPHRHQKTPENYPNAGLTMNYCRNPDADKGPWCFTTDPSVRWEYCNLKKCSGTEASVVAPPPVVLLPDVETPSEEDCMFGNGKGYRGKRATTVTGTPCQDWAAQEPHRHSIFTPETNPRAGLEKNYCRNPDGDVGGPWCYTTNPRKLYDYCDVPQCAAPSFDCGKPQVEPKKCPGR

PSD95PDZ2 = PSD95PDZ2 (Homo sapiens, UniProt P78352); assay: Competitive ELISA with biotinylated-NA-1 on coated PSD95PDZ2; assay type: binding; conditions: for EC50 compared among NA-1, D-Tat-L-2B9C and D-NA-1: FIG. 12
PSD95PDZ2, sequence (P78352 160-246 limits assumed): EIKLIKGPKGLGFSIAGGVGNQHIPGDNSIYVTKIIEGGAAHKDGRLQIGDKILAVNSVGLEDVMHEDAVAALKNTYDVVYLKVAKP
Protocol: Binding was evaluated with a competitive ELISA assay. A plate was coated with 1 ug/ml PSD95PDZ2 in 50 mM bicarbonate buffer overnight at 4C. The plate was blocked in 2% BSA in PBST (0.05%) for 2 h at room temperature. […] The wells were washed again, and then incubated with TMB solution for 10 min. The reaction was stopped with 100 ul H2SO4. Absorbance was determined at 450 nm with the synergy H1 reader.

plasmin [12] = biological target: T2, plasmin; assay type: in vitro ADME; remark: listed apart in the source
Source text: Plasmin is a serum protease induced by thrombolytic agents, such as tPA. Plasmin cleavage sites can occur on the C-terminal side of basic amino acids residues in a peptide formed of L-amino acids. NA-1 was digested with plasmin and the products analyzed by mass spectrometry. […] However, cleavage at the other two sites may occur to a lesser extent.

histamine = conditions: rat, in vivo, iv, 7.6 mg/kg
Protocol: Blood samples were collected at 11 timepoints: Pre, 2.5, 5, 10, 15, 30, 60 min, 3 hr, 6 hr, 12 hr and 24 hr. Histamine levels were quantified by using commercially available histamine ELISA assay kit (Histamine ELISA-H1531-K01, Eagle Bioscience). The plates were coated with the plasma samples (50 ul/well) incubated for 60 minutes at room temperature on an orbital shaker with medium frequency. Then 100 ul of enzyme conjugate was added to the wells and incubated for 20 minutes at room temperature. Samples were washed again, and then incubated for 25 minutes at room temperature with TMB solution. The reaction was stopped with 100 ul H2SO4. Absorbance was determined on an ELISA plate reader at 450 nm.
Blood samples were taken at pre-injection and at 0, 1, 2.5, 5, 10, 15, 30- and 60-minutes post dose and used for histamine levels quantification using commercially available kit.

[13] = rat, in vivo, 25 mg/kg
Protocol: as §2, §3, §4, §5

tPA = tPA (Homo sapiens, UniProt P00750)
tPA, sequence (P00750 36-562): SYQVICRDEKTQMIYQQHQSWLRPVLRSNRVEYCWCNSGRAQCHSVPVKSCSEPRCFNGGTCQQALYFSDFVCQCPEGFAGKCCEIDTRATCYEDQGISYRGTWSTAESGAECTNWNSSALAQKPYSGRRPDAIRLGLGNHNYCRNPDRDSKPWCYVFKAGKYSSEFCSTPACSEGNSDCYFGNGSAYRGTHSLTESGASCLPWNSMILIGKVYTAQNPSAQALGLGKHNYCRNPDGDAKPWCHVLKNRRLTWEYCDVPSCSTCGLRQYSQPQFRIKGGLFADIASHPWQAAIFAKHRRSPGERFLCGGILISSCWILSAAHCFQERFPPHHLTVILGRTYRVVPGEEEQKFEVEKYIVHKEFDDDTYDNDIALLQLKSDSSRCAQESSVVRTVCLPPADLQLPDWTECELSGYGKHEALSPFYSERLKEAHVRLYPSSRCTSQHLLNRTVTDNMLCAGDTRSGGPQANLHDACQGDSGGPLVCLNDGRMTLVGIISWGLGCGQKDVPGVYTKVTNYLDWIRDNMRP

rt-PA [14] = system: rt-PA
[15] = intramuscular versus intravenous
[16] = without tPA, 7.6 mg/kg IV bolus 1 hour after stroke onset

Compound: YGRKKRRQRRRKLSSIESDV [NA-1]
- dose proportionality between treatment dose and Cmax [1]: dose proportionality
- peptide content / degradation in human plasma with TNK [2]: rapid degradation; also recorded: reduced
- peptide content / degradation in human plasma with rt-PA (rt-PA [3]): decayed much more rapidly when tPA was co-administered; also recorded: significantly reduced
- AUC, intramuscular [4, 15]: somewhat higher AUC
- Cmax, intramuscular [4, 15]: lower CMax
- half-life, intramuscular [4, 15]: higher half-life
- half-life, subcutaneous ([4]; subcutaneous versus same dose intravenous NA-1): longer half-life
- Cmax, subcutaneous ([4]; subcutaneous, 25 mg/kg (Table 4), NA-1 versus IV NA-1, others versus subcutaneous NA-1): much lower CMax
- AUC / plasma exposure, subcutaneous ([4]; subcutaneous, 25 mg/kg (Table 4), NA-1 versus IV NA-1, others versus subcutaneous NA-1, 25 mg/kg): somewhat lower AUC
- AUC when administered simultaneously with rt-PA [5]: significantly reduced
- Cmax when administered simultaneously with rt-PA [5]: significantly reduced
- peptide content / degradation in rat plasma with TNK [6]: rapid degradation; also recorded: reduced
- peptide content / degradation in rat plasma with rt-PA (rt-PA [7]; given simultaneously with rt-PA (tPA)): decayed much more rapidly when tPA was co-administered; also recorded: significantly reduced
- time to decay to zero with tPA (rt-PA [7]; treated with tPA): ≤ 15 min
- infarction volume ([8]; tPA co-administered (rt-PA 5.4 mg/kg), 7.6 mg/kg IV 1 hour after stroke onset): reducing its effect
- infarction volume [8, 16]: significantly reduced infarction volume and right hemisphere swelling
- right hemisphere swelling [8, 16]: significantly reduced infarction volume and right hemisphere swelling
- dissociation of preformed NMDAR2B:PSD-95 complexes (NMDAR2B:PSD-95 complexes): able to dissociate preformed NMDAR2B:PSD-95 complexes
- effective plasma concentration in human studies [9]: ~10 µg/mL
- infarct volume ([10]; 7.6 mg/kg subcutaneous bolus 60 minutes after onset of stroke): failed to achieved infarct volume reduction
- infarct volume ([10]; 25 mg/kg subcutaneous bolus 60 minutes after onset of stroke): significant reduction in infarct volume
- plasma concentration required for neuroprotection ([10]; rat, in vivo): ≥ 2000 ng/mL
- degradation by plasmin in PBS (plasmin [11]): rapidly degraded
- EC50 compared among NA-1, D-Tat-L-2B9C and D-NA-1 (PSD95PDZ2): about the same within experimental error
- binding to PSD-95 PDZ2 domain (PSD95PDZ2; competitive ELISA): high binding affinity
- plasmin cleavage sites (plasmin [12]): cleavage at seven of nine potential sites

Compound: CC[C@H](C)[C@H](NC(=O)[C@H](CO)NC(=O)[C@H](CO)NC(=O)[C@H](CC(C)C)NC(=O)[C@H](CCCCN)NC(=O)[C@@H](CCCNC(=N)N)NC(=O)[C@@H](CCCNC(=N)N)NC(=O)[C@@H](CCCNC(=N)N)NC(=O)[C@@H](CCC(N)=O)NC(=O)[C@@H](CCCNC(=N)N)NC(=O)[C@@H](CCCNC(=N)N)NC(=O)[C@@H](CCCCN)NC(=O)[C@@H](CCCCN)NC(=O)[C@@H](CCCNC(=N)N)NC(=O)CNC(=O)[C@H](N)Cc1ccc(O)cc1)C(=O)N[C@@H](CCC(=O)O)C(=O)N[C@@H](CO)C(=O)N[C@@H](CC(=O)O)C(=O)N[C@H](C(=O)O)C(C)C [D-TAT-L-2B9c] (H-[dY]G[dR][dK][dK][dR][dR][dQ][dR][dR][dR]KLSSIESDV-OH; N-terminus and C-terminus assumed)
- histamine release (histamine): did result in significant histamine release
- AUC / plasma exposure, subcutaneous [13]: also increased Cmax and AUC relative to subcutaneous NA-1 but not to the same extent
- Cmax, subcutaneous [13]: also increased Cmax and AUC relative to subcutaneous NA-1 but not to the same extent
- degradation by tPA or TNK in PBS without plasma (tPA): no degradation
- degradation by plasmin in PBS (plasmin [11]): resistant to plasmin cleavage
- IC50 (PSD95PDZ2): < 5 µM
- EC50 compared among NA-1, D-Tat-L-2B9C and D-NA-1 (PSD95PDZ2): about the same within experimental error
- peptide content / degradation in human plasma with rt-PA (rt-PA [14]): resistant to proteolysis
